Experimental data from US12344595B2, “2-amino-n-phenyl-nicotinamides as NAV1.8 inhibitors” (Merck Sharp & Dohme LLC, priority 2018, dated 2025).

Molecular target: human Nav1.8 (Homo sapiens (Human), UniProt Q9Y5Y9)
Assay: Nav1.8 Qube automated patch-clamp assay
Assay type: cell-based
Conditions: Nav1.8 Qube Assay; human Nav1.8 channels stably expressed in HEK 293 cells
Summary of the method: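 IC50 values came from Hill fitting of peak currents: pulse 1 for resting-state and pulse 10 for inactivated-state inhibition. Currents were recorded in stably transfected HEK293 cells at room temperature, with ten 20 ms steps to 10 mV at 1 Hz from a −90 mV hold. External solution was 150 mM NaCl-based; internal solution was CsF/CsCl.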

Chain of human Nav1.8 (Q9Y5Y9 whole entry): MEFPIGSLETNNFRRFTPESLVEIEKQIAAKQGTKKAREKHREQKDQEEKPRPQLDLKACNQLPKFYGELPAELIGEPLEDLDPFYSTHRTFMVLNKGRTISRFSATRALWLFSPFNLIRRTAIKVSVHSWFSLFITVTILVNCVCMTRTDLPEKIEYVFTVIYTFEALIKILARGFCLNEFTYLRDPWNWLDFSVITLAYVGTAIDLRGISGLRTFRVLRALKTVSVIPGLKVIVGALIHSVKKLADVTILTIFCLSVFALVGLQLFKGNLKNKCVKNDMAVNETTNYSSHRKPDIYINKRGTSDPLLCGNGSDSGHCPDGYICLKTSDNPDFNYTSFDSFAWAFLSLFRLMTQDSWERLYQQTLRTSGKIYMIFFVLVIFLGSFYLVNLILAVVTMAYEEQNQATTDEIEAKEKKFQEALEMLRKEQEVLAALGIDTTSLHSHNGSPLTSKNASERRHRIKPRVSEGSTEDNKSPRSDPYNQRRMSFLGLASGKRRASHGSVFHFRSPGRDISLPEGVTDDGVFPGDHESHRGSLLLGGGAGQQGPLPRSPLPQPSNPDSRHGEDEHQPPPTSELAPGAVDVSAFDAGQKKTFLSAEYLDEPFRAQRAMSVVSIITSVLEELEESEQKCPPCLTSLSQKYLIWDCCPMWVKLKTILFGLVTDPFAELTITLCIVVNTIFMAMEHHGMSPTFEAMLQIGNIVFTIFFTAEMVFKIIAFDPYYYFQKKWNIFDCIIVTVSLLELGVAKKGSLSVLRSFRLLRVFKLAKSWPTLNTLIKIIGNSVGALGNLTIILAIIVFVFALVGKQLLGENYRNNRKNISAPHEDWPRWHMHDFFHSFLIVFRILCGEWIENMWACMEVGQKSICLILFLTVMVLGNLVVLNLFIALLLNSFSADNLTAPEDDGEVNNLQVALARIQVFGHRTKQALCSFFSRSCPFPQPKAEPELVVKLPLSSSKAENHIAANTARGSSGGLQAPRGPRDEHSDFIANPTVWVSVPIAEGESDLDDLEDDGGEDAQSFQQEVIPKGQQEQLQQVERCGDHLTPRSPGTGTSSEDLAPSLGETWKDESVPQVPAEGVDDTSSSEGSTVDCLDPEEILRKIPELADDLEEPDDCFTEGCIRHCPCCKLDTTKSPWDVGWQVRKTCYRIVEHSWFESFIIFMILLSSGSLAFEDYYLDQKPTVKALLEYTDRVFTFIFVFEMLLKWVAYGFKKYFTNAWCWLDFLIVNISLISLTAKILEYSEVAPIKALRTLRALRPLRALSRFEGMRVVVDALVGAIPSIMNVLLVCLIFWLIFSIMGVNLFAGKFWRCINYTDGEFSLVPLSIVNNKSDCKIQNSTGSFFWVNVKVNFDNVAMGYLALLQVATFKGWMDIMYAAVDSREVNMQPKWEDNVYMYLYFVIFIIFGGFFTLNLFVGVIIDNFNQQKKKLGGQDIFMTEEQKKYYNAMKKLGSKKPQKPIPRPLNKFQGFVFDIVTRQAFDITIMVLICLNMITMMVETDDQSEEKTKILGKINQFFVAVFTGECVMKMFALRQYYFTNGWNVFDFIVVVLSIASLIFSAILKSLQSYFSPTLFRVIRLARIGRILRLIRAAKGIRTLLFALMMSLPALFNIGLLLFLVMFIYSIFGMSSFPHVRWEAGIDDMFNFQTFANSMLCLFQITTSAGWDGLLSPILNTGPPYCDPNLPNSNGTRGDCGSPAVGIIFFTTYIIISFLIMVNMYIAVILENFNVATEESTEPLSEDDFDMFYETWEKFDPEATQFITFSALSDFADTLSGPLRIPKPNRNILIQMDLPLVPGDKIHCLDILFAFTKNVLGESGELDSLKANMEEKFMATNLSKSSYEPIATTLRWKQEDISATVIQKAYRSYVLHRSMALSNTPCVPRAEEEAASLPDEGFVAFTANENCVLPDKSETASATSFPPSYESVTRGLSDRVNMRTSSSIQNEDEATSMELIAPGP

Structure (SMILES)	IC50 [nM]
NS(=O)(=O)c1cccc(NC(=O)c2ccc(C(F)(F)C(F)(F)F)nc2N2CCCCC2)c1 [Example 165, 6-(1,1,2,2,2-pentafluoroethyl)-2-(1-piperidyl)-N-(3-sulfamoylphenyl) pyridine-3-carboxamide]	342
CS(=O)(=O)c1cccc(NC(=O)c2cc(C(F)(F)C(F)(F)F)cnc2N2CCCCCC2)c1 [Example 166, 2-(azepan-1-yl)-N-(3-methylsulfonylphenyl)-5-(1,1,2,2,2-penta-fluoroethyl)pyridine-3-carboxamide]	30
NC(=O)c1cccc(NC(=O)c2cc(C(F)(F)C(F)(F)F)cnc2N2CCCCCC2)c1 [Example 167, 2-(azepan-1-yl)-N-(3-carbamoylphenyl)-5-(1,1,2,2,2-penta-fluoroethyl)pyridine-3-carboxamide]	85
COc1nc(N2CCCCCC2)c(C(=O)Nc2cccc(S(N)(=O)=O)c2)cc1C(F)(F)F [Example 169, 2-(azepan-1-yl)-6-methoxy-N-(3-sulfamoylphenyl)-5-(trifluoromethyl)nicotinamide]	42
NS(=O)(=O)c1cc(NC(=O)c2cc(C(F)(F)F)cnc2N2CCC(F)(F)CC2)cc(F)c1F [Example 171, N-(3,4-difluoro-5-sulfamoylphenyl)-2-(4,4-difluoropiperidin-1-yl)-5-(trifluoro-methyl)nicotinamide]	137
Cc1c(Cl)nc(N2CCCCCC2)c(C(=O)Nc2cccc(S(N)(=O)=O)c2)c1C [Example 174, 2-(azepan-1-yl)-6-chloro-4,5-dimethyl-N-(3-sulfamoylphenyl)-pyridine-3-carboxamide]	6
Cc1ccnc(N2CCCCCC2)c1C(=O)Nc1cccc(S(N)(=O)=O)c1 [Example 175, 2-(azepan-1-yl)-4-methyl-N-(3-sulfamoyl-phenyl)pyridine-3-carboxamide]	290
Cc1nc(N2CCCC(F)(F)CC2)c(C(=O)Nc2cccc(C(N)=O)c2)cc1C#N [Example 177, N-(3-carbamoylphenyl)-5-cyano-2-(4,4-difluoroazepan-1-yl)-6-methyl-pyridine-3-carboxamide]	28
Cc1nc(N2CCCCCC2)c(C(=O)Nc2cccc(C(N)=O)c2)cc1C#N [Example 178, 2-(azepan-1-yl)-N-(3-carbamoylphenyl)-5-cyano-6-methyl-pyridine-3-carboxamide]	54
Cc1nc(N2CCCC(F)(F)CC2)c(C(=O)N(C)c2cccc(S(N)(=O)=O)c2)c(C)c1Cl [Example 179, 5-chloro-2-(4,4-difluoroazepan-1-yl)-N,4,6-trimethyl-N-(3-sulfamoylphenyl)nicotinamide]	873

More lines, now with the values ahead:

IC50 [nM]	Structure (SMILES)
7.1	CC(C)c1cnc(N2CCCC(F)(F)CC2)c(C(=O)Nc2cccc(S(N)(=O)=O)c2)c1 [Example 162, 2-(4,4-difluoroazepan-1-yl)-5-isopropyl-N-(3-sulfamoylphenyl)nicotinamide]
7.3	NS(=O)(=O)c1cccc(NC(=O)c2cc(C3CC3)cnc2N2CCCC(F)(F)CC2)c1 [Example 163, 5-cyclopropyl-2-(4,4-difluoroazepan-1-yl)-N-(3-sulfamoyl-phenyl)nicotinamide]
15	NS(=O)(=O)c1cccc(NC(=O)c2cc(C(F)(F)C(F)(F)F)cnc2N2CCCCCC2)c1 [Example 164, 2-(azepan-1-yl)-5-(perfluoroethyl)-N-(3-sulfamoylphenyl)nicotinamide]
3.2	Cc1nc(N2CCCCCC2)c(C(=O)Nc2cccc(S(N)(=O)=O)c2)cc1C(F)(F)F [Example 168, 2-(azepan-1-yl)-6-methyl-N-(3-sulfamoylphenyl)-5-(trifluoromethyl)nicotinamide]
119	NS(=O)(=O)c1cccc(NC(=O)c2cc(C(F)(F)F)cnc2N2CCC(F)(F)CC2)c1F [Example 170, 2-(4,4-difluoropiperidin-1-yl)-N-(2-fluoro-3-sulfamoylphenyl)-5-(trifluoromethyl)nicotinamide]
7.5	NS(=O)(=O)c1cccc(NC(=O)c2cc(OC(F)F)cnc2N2CCCC(F)(F)CC2)c1 [Example 172, 2-(4,4-difluoroazepan-1-yl)-5-(difluoromethoxy)-N-(3-sulfamoylphenyl)nicotinamide]
7.8	CS(=O)(=O)c1cccc(NC(=O)c2cc(Cl)cnc2N2CCCC(F)(F)CC2)c1 [Example 173, 5-chloro-2-(4,4-difluoroazepan-1-yl)-N-(3-(methylsulfonyl)phenyl)nicotinamide]
7.3	Cc1nc(N2CCCC(F)(F)CC2)c(C(=O)Nc2cccc(S(C)(=O)=O)c2)cc1C#N [Example 176, 5-cyano-2-(4,4-difluoroazepan-1-yl)-6-methyl-N-(3-methyl-sulfonylphenyl) pyridine-3-carboxamide]
24	NS(=O)(=O)c1cccc(NC(=O)c2cnc(C3CC3)nc2N2CCCC(F)(F)CC2)c1 [Example 180, 2-cyclopropyl-4-(4,4-difluoroazepan-1-yl)-N-(3-sulfamoylphenyl)pyrimidine-5-carboxamide]
70	NS(=O)(=O)c1cccc(NC(=O)c2cc(C(F)(F)F)nnc2N2CCCC(F)(F)CC2)c1 [Example 181, 3-(4,4-difluoroazepan-1-yl)-N-(3-sulfamoylphenyl)-6-(trifluoromethyl)pyridazine-4-carboxamide]
